In publication PMC10746543, “Design principles for cyclin K molecular glue degraders” (Nature Chemical Biology, 2023):
Where “and” joins values, the source holds several entries; their conditions need not be identical. Equal values may be shown once. Read-outs that look alike come from different tables or passages of the source.

Experiments:
[1] = system: cyclin K–eGFP degradation reporter; test: Cyclin K reporter stability analysis (dual-color cyclin K–eGFP reporter); assay type: cell-based, human
Description: HEK293T–Cas9 cells expressing the cyclin K–eGFP degradation reporter were resuspended at 1 × 10^6 ml^−1 and 50 µl of cell suspension was seeded in non-cell-culture-treated 384-well plates. Shortly after, cells were treated with drug or DMSO for 5 h. […] The fluorescent signal was quantified by flow cytometry (LSRFortessa flow cytometer, BD Biosciences). Using FlowJo (flow cytometry analysis software, BD Biosciences), the geometric mean of the eGFP and mCherry fluorescent signal for round and mCherry-positive cells was calculated. The ratio of eGFP to mCherry was normalized to the average of three DMSO-treated controls.

CDK12–cyclin K and DDB1 = target: T1, CDK12–cyclin K and DDB1 (Homo sapiens, UniProt Q16531+Q9NYV4, K965R); test: TR-FRET ternary complex formation assay (compound titration); assay type: binding
T1 construct: His6–CDK12 (a.a. 713–1,052); full-length or beta-propeller B domain deletion (ΔBPB: a.a. 396–705 deleted) constructs of His6–DDB1ΔBPB, StrepII–Avi–DDB1, or His6–Spy–DDB1; made in house; host or cells: Trichoplusia ni High Five insect cells (baculovirus)
Text: A 70 μs delay was employed to reduce background fluorescence. The TR-FRET signal was obtained through calculating the ratio of 520 nm to 490 nm fluorescence, and Prism 9 (GraphPad) was used for further data analysis.

HEK293T cells = test: Drug sensitivity assay (CellTiter-Glo viability) with or without MLN4924 pretreatment; assay type: cell-based, human; details: Supplementary Table 2; for EC50: Homo sapiens, HEK-293T, HEK293T viability, 72 h, compound alone, read-out: Cellular assays EC50; for Toxicity rescue: MLN4924-mediated cytotoxicity rescue, 10 µM used where n.d.
Description: HEK293T–Cas9 cells were resuspended at 0.15 × 10^6 ml^−1 treated with DMSO or 100 nM MLN4924 and plated on 384-well plates. After 2 h, the indicated drugs were dispensed with a D300 digital dispenser (Tecan). After 3 days of drug exposure, cell viability was assessed using the CellTiter-Glo luminescent assay (Promega, G7572) on an CLARIOstar Plus, MARS 3.4 (BMG LabTech). Cell viabilities were calculated relative to DMSO controls.

T1 sequence (Q9NYV4 713-1052 K965R): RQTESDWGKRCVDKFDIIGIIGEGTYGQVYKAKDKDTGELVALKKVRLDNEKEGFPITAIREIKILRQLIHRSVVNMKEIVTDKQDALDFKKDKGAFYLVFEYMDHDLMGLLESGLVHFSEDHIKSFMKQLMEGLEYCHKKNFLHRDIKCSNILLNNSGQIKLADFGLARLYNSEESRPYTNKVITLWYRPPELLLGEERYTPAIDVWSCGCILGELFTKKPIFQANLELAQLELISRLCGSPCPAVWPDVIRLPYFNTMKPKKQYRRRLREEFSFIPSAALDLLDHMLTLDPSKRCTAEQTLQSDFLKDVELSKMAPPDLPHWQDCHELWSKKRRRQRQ
T1 sequence (O75909 1-267 partner): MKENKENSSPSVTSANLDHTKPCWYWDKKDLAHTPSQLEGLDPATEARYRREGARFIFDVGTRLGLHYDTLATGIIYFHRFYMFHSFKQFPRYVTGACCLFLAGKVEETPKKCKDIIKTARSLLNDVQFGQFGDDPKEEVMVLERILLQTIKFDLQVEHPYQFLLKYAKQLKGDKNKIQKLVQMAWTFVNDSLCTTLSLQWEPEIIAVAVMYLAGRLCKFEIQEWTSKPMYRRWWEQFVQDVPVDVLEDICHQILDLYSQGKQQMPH
T1 sequence (Q16531 whole entry): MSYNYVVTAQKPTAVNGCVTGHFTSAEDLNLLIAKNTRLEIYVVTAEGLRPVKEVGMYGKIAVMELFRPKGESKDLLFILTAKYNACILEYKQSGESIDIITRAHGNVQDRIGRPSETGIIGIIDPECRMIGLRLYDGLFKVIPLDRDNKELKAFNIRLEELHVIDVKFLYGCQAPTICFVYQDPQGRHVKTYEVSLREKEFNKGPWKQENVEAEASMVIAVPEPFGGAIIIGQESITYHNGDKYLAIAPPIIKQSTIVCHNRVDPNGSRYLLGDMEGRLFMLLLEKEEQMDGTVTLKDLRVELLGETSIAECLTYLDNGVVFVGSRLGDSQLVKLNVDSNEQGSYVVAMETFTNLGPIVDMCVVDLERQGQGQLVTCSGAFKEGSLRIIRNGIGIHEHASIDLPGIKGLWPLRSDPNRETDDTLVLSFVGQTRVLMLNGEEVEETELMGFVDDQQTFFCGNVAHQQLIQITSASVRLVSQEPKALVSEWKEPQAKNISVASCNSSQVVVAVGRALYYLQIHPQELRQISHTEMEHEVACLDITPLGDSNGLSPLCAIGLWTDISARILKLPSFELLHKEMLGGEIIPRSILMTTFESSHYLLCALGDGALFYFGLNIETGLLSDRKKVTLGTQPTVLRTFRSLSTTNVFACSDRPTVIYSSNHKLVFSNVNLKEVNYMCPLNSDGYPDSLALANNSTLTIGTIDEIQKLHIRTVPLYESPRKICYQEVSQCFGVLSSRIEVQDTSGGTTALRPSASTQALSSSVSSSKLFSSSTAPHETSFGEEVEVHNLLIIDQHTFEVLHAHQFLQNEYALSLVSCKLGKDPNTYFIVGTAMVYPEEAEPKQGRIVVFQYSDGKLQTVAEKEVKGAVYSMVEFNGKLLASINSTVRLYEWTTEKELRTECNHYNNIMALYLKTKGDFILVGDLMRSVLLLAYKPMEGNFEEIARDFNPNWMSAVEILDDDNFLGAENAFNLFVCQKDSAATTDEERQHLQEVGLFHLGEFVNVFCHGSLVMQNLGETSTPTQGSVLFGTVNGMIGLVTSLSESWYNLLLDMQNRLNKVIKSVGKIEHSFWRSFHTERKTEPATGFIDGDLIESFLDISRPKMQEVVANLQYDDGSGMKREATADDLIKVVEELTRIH

DC50 ([1]; source data sheet correlations, read-out: DC50) [nM]	TR-FRET signal at compound concentration 4.68 nM (CDK12–cyclin K and DDB1; compound concentration 4.68 nM, raw titration data)	TR-FRET signal at compound concentration 21.6 nM (CDK12–cyclin K and DDB1; compound concentration 21.6 nM, raw titration data)	TR-FRET signal at compound concentration 36 nM (CDK12–cyclin K and DDB1; compound concentration 36 nM, raw titration data)	TR-FRET signal at compound concentration 79.2001 nM (CDK12–cyclin K and DDB1; compound concentration 79.2001 nM, raw titration data)	TR-FRET signal at compound concentration 158.4 nM (CDK12–cyclin K and DDB1; compound concentration 158.4 nM, raw titration data)	TR-FRET signal at compound concentration 309.6 nM (CDK12–cyclin K and DDB1; compound concentration 309.6 nM, raw titration data)	TR-FRET signal at compound concentration 626.401 nM (CDK12–cyclin K and DDB1; compound concentration 626.401 nM, raw titration data)	TR-FRET signal at compound concentration 1252.8 nM (CDK12–cyclin K and DDB1; compound concentration 1252.8 nM, raw titration data)	TR-FRET signal at compound concentration 2448 nM (CDK12–cyclin K and DDB1; compound concentration 2448 nM, raw titration data)	TR-FRET signal at compound concentration 9936.01 nM (CDK12–cyclin K and DDB1; compound concentration 9936.01 nM, raw titration data)	TR-FRET signal at compound concentration 20016 nM (CDK12–cyclin K and DDB1; compound concentration 20016 nM, raw titration data)	EC50 (CDK12–cyclin K and DDB1; sheet MOESM7, read-out: log TR-FRET EC50 (converted)) [nM]	EC50 (CDK12–cyclin K and DDB1; source data sheet correlations, read-out: TR-FRET EC50) [nM]	DC50 ([1]; Supplementary Table 2, HEK293T cycK-eGFP reporter, 5 h, read-out: Cellular assays DC50) [nM]	SMILES	EC50 (HEK293T cells) [nM]	Toxicity rescue (HEK293T cells) [%]
3570	0.2095 and 0.2212	0.2225 and 0.2323	0.253 and 0.2736	0.3096 and 0.3199	0.4094 and 0.4186	0.5758 and 0.5879	0.9565 and 0.9048	1.567 and 1.497	2.482 and 2.457	3.626 and 3.7316	3.761 and 3.946	1920	1920	–	COc1ccccc1CCNC(=O)CNc1nc(NCc2ccc(-c3ccccn3)cc2)c2ncn(C(C)C)c2n1 [DS50]	> 10000	0
–	–	–	–	–	–	–	–	–	–	–	–	–	–	< 50	CC(C)(C)c1cnc(CSc2cnc(NC(=O)C3CCN(CC(=O)NCCOCCOCCOCCNc4cccc5c4C(=O)N(C4CCC(=O)NC4=O)C5=O)CC3)s2)o1 (stereo not shown) [THAL-SNS032]	192	267
